# Values quoted from earlier work, collected in paper PMC7004556 (Cancer Science, 2020).
# Tests used:
# patients = conditions: phase I study, only at the highest dose investigated (12 mg); cited from earlier work
# FGFR pathway = conditions: cited from earlier work
# advanced solid tumors = conditions: Japanese patients with advanced solid tumors, duration ≥4 weeks; cited from earlier work
# advanced gastric cancer = advanced gastric cancer with FGFR2 polysomy or gene amplification; cited from earlier work
compound,measurement,setting,value
COc1cc(OC)cc(N(CCNC(C)C)c2ccc3ncc(-c4cnn(C)c4)nc3c2)c1 [JNJ‐42756493],DLT observed,patients,detachment of retinal pigment epithelium <grade 3 was the only DLT observed
same,"Phosphate and 1,25‐(OH)2‐vitamin D",FGFR pathway; studies in solid tumors,increased
AZD4547,Best response,advanced solid tumors,stable disease
same,Effect on progression‐free survival compared with paclitaxel,advanced gastric cancer,no significant effect
same,Serum phosphate,FGFR pathway,increase
